Results: BigSolDB 2.1

Clc1cccnc1Cl
solubility (mole fraction)
Conditions | 278.15 K | 283.15 K | 288.15 K | 293.15 K | 298.15 K | 303.15 K | 308.15 K | 313.15 K
in 1,4-dioxane | – | – | 0.241 | 0.285 | 0.332 | 0.382 | 0.442 | 0.514
in acetonitrile | 0.061 | 0.0806 | 0.108 | 0.137 | 0.178 | 0.23 | 0.295 | 0.389
in cyclohexane | – | 0.0334 | 0.045 | 0.061 | 0.0796 | 0.106 | 0.145 | 0.187
in dichloromethane | 0.213 | 0.238 | 0.27 | 0.304 | 0.346 | 0.386 | 0.432 | 0.489
in ethanol | 0.0314 | 0.0418 | 0.0558 | 0.071 | 0.0902 | 0.115 | 0.145 | 0.188
in ethyl acetate | 0.166 | 0.194 | 0.223 | 0.259 | 0.302 | 0.349 | 0.398 | 0.46
in isobutanol | 0.0394 | 0.0507 | 0.0654 | 0.0836 | 0.108 | 0.14 | 0.18 | 0.232
in isopropanol | 0.032 | 0.0401 | 0.0532 | 0.0687 | 0.0895 | 0.117 | 0.154 | 0.2
in methanol | 0.0181 | 0.0259 | 0.0362 | 0.0505 | 0.0676 | 0.0943 | 0.129 | 0.178
in methyl acetate | 0.146 | 0.172 | 0.203 | 0.237 | 0.28 | 0.321 | 0.374 | 0.425
in n-butanol | 0.0489 | 0.0607 | 0.0798 | 0.0983 | 0.123 | 0.155 | 0.197 | 0.249
in n-butyl acetate | 0.185 | 0.213 | 0.246 | 0.282 | 0.324 | 0.372 | 0.424 | 0.487
in n-hexane | 0.0154 | 0.0216 | 0.029 | 0.0387 | 0.0516 | 0.0684 | 0.0906 | 0.123
in n-propanol | 0.0378 | 0.0479 | 0.0606 | 0.0804 | 0.1 | 0.129 | 0.164 | 0.211
